For one test, the system named is prostate line LNCap. The test is described as follows: In vitro cell culture growth assay (MTS), LNCap.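 Further: viable cell density read by absorbance at 490 nm, growth expressed as percent of vehicle-treated cells on the same plate.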 The format is cell-based, human. The following applies: LNCap cells, three days after drug treatment.
In the next test the test system is breast line MDA468. Kind of test: In vitro cell culture growth assay (MTS), MDA468. The following applies: MDA468 cells, three days after drug treatment. The format is cell-based, human. The essentials:
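Three-day drug treatment starting 1 day post-plating; viable cells quantified via MTS metabolism (A490); effect normalised to in-plate vehicle controls as % growth.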

The target of another test is PI3K (Homo sapiens, UniProt P42336). Kind of test: Fluorescence polarization assay for PI3K.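 Further: PI3K kinase reaction on PIP2 with ATP, 30-60 min, product sensed by GST-GRP with red probe in fluorescence polarization (mP), controls without enzyme and at zero time.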 The format is biochemical. The settings on record: PI3Kα; read-out: PI3Kα IC50. In general terms: Polarisation of emitted light reports the rotation of a fluorescent probe.

The values that follow come from patent publication US20080234262A1 (Wyeth, priority 2007, published 2008).

Sequence of PI3K (P42336 whole entry): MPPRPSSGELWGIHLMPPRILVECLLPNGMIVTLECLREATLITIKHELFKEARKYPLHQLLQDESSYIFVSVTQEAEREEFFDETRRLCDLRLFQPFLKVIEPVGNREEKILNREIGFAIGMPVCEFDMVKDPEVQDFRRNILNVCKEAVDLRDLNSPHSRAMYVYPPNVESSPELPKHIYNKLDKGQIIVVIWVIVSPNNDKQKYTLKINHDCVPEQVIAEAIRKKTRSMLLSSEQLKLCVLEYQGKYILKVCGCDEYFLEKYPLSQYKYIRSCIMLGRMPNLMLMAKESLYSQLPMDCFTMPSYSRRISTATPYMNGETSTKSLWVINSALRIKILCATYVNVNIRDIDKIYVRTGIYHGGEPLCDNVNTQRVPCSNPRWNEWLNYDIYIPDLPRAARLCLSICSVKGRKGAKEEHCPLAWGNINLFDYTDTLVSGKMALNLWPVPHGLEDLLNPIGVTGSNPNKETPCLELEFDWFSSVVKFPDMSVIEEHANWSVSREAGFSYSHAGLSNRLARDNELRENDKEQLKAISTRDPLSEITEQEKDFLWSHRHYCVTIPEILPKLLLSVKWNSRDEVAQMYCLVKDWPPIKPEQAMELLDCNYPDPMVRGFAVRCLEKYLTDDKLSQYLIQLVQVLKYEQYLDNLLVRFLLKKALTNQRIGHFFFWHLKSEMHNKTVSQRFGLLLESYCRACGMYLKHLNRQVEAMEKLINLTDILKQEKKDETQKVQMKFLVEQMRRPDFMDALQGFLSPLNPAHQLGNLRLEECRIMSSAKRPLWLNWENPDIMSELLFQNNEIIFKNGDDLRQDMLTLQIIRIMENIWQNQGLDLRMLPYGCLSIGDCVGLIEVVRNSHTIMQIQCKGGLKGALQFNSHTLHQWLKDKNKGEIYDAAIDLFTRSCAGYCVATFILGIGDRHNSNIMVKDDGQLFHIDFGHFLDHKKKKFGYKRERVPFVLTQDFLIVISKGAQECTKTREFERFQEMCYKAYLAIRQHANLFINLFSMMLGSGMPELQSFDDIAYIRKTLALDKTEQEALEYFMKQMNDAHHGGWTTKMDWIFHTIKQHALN
Sequence of PI3K (P27986 whole entry partner): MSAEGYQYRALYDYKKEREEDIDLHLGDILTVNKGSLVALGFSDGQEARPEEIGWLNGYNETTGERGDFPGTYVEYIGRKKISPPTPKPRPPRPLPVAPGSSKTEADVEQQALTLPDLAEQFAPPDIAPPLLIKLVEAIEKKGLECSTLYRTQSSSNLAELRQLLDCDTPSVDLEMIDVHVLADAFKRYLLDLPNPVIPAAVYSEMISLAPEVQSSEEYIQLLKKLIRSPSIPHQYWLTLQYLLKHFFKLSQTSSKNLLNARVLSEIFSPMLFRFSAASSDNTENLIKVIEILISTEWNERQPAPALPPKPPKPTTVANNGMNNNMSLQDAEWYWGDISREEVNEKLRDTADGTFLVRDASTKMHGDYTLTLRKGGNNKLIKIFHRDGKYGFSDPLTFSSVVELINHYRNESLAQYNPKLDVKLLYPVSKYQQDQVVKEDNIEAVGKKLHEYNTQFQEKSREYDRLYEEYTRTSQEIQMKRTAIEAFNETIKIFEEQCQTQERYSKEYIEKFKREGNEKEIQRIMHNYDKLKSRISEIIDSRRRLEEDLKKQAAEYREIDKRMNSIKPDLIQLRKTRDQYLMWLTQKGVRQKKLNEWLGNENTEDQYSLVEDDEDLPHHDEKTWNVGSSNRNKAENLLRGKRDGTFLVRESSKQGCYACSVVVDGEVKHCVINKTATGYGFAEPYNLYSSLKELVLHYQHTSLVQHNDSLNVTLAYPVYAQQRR

Broadly, the IC50 is the midpoint of a concentration-inhibition curve. Take `O=C(Nc1ccccc1)Nc1ccc(-c2nc(N3CCOCC3)c3cnn(C4CCN(CC(F)(F)F)CC4)c3n2)cc1` [Compound 789, 1-(4-{4-morpholin-4-yl-1-[1-(2,2,2-trifluoroethyl)piperidin-4-yl]-1H-pyrazolo[3,4-d]pyrimidin-6-yl}phenyl)-3-phenylurea]: the IC50 in the test with prostate line LNCap (Homo sapiens, LNCaP, 72 h) was 0.1 µM; in the test with breast line MDA468 (Homo sapiens, 72 h), 0.9 µM; at PI3K, 0.018 µM.

Take `CNC(=O)Nc1ccc(-c2nc(N3CCOCC3)c3cnn(C4CCN(C)CC4)c3n2)cc1` [Compound 401, 1-methyl-3-{4-[1-(1-methylpiperidin-4-yl)-4-morpholin-4-yl-1H-pyrazolo[3,4-d]pyrimidin-6-yl]phenyl}urea]: the IC50 with prostate line LNCap (Homo sapiens, LNCaP, 72 h) turned out to be 1 µM; in the test on breast line MDA468 (Homo sapiens, 72 h), 3.8 µM; at PI3K, 0.211 µM.

`CNC(=O)Nc1ccc(-c2nc(N3CCOCC3)c3cnn(C4CCN(Cc5cccc(F)c5)CC4)c3n2)cc1` [Compound 428, 1-(4-{1-[1-(3-fluorobenzyl)piperidin-4-yl]-4-morpholin-4-yl-1H-pyrazolo[3,4-d]pyrimidin-6-yl}phenyl)-3-methylurea]: the IC50 with prostate line LNCap (Homo sapiens, LNCaP, 72 h) stood at 0.027 µM; with breast line MDA468 (Homo sapiens, 72 h) it was 0.2 µM; at PI3K, 0.03 µM.

As for `O=C(Nc1ccc(-c2nc(N3CCOCC3)c3cnn(C4CCN(Cc5cccnc5)CC4)c3n2)cc1)NC1CC1` [Compound 649, 1-cyclopropyl-3-(4-{4-morpholin-4-yl-1-[1-(pyridin-3-ylmethyl)piperidin-4-yl]-1H-pyrazolo[3,4-d]pyrimidin-6-yl}phenyl)urea], the IC50 is less than 0.027 µM in the test with prostate line LNCap, 0.085 µM in the test on breast line MDA468 and 0.438 µM at PI3K.

Turning to `O=C(NCCCc1ccccc1)Nc1ccc(-c2nc(N3CCOCC3)c3cnn(C4CCN(Cc5ccccc5)CC4)c3n2)cc1` [Compound 506, 1-{4-[1-(1-benzylpiperidin-4-yl)-4-morpholin-4-yl-1H-pyrazolo[3,4-d]pyrimidin-6-yl]phenyl}-3-(3-phenylpropyl)urea], the IC50 in the test with prostate line LNCap (Homo sapiens, LNCaP, 72 h) was 4.5 µM; with breast line MDA468 (Homo sapiens, 72 h) it was greater than 60 µM; on PI3K, 7.03 µM.

As to `Fc1cc(F)cc(-c2nc(N3CCOCC3)c3cnn(C4CCN(Cc5ccccc5)CC4)c3n2)c1` [Compound 88], the IC50 in the test on prostate line LNCap (Homo sapiens, LNCaP, 72 h) is 60 µM; in the test with breast line MDA468 (Homo sapiens, 72 h) it was 58 µM; on PI3K, 2.19 µM.

On to `CNC(=O)Nc1ccc(-c2nc(N3CCOCC3)c3cnn(C4CCN(C(=O)c5ccc(C)cc5)CC4)c3n2)cc1` [Example 367, 1-methyl-3-(4-{1-[1-(4-methylbenzoyl)piperidin-4-yl]-4-morpholin-4-yl-1H-pyrazolo[3,4-d]pyrimidin-6-yl}phenyl)urea], for which the IC50 in the test on prostate line LNCap (Homo sapiens, LNCaP, 72 h) came out at 0.027 µM; in the test with breast line MDA468 (Homo sapiens, 72 h) it was 0.1 µM; on PI3K it was 0.043 µM.

As to `CC(C)C(=O)Nc1ccc(-c2nc(N3CCOCC3)c3cnn(C4CCN(Cc5ccccc5)CC4)c3n2)cc1` [Compound 186], the IC50 with prostate line LNCap (Homo sapiens, LNCaP, 72 h) came out at 4 µM; with breast line MDA468 (Homo sapiens, 72 h) it was 3.9 µM; at PI3K, 3.42 µM.

Regarding `CCNC(=O)Nc1cc(F)c(-c2nc(N3CCOCC3)c3cnn(C4CCN(C(=O)c5cccnc5)CC4)c3n2)cc1F` [Example 466, 1-(2,5-difluoro-4-{4-morpholin-4-yl-1-[1-(pyridin-3-ylcarbonyl)piperidin-4-yl]-1H-pyrazolo[3,4-d]pyrimidin-6-yl}phenyl)-3-ethylurea], the IC50 in the test on prostate line LNCap (Homo sapiens, LNCaP, 72 h) was 1.05 µM; in the test with breast line MDA468 (Homo sapiens, 72 h) it was 3.3 µM; at PI3K, 3.11 µM.

Turning to `CNC(=O)Nc1ccc(-c2nc(N3CCOCC3)c3cnn(C4CCN(C(=O)c5ccccc5C)CC4)c3n2)cc1` [Compound 602, 1-methyl-3-(4-{1-[1-(2-methylbenzoyl)piperidin-4-yl]-4-morpholin-4-yl-1H-pyrazolo[3,4-d]pyrimidin-6-yl}phenyl)urea], the IC50 with prostate line LNCap (Homo sapiens, LNCaP, 72 h) was less than 0.027 µM; in the test on breast line MDA468 (Homo sapiens, 72 h), 0.07 µM; at PI3K, 0.093 µM.

For `COC(=O)Nc1ccc(-c2nc(N3CCOCC3)c3cnn(C4CCN(C(=O)N5CCN(C)CC5)CC4)c3n2)cc1` [Compound 448, methyl [4-(1-{1-[(4-methylpiperazin-1-yl)carbonyl]piperidin-4-yl}-4-morpholin-4-yl-1H-pyrazolo[3,4-d]pyrimidin-6-yl)phenyl]carbamate], the IC50 with prostate line LNCap (Homo sapiens, LNCaP, 72 h) worked out at 0.9 µM; in the test with breast line MDA468 (Homo sapiens, 72 h), 1.7 µM; on PI3K, 0.725 µM.

As for `CC(C)(C)OC(=O)N1CCC(n2ncc3c(N4CCOCC4)nc(-c4ccc(NC(=O)Nc5ccncc5)cc4)nc32)CC1` [Compound 771, tert-butyl 4-(4-morpholin-4-yl-6-{4-[(pyridin-4-ylcarbamoyl)amino]phenyl}-1H-pyrazolo[3,4-d]pyrimidin-1-yl)piperidine-1-carboxylate], the IC50 in the test on prostate line LNCap (Homo sapiens, LNCaP, 72 h) was found to be 0.07 µM; in the test with breast line MDA468 (Homo sapiens, 72 h) it was 0.19 µM; on PI3K, 0.059 µM.

Take `CNC(=O)Nc1ccc(-c2nc(N3CCOCC3)c3cnn(C4CCN(C(=O)c5cccnc5)CC4)c3n2)cn1` [Compound 480, 1-methyl-3-(5-{4-morpholin-4-yl-1-[1-(pyridin-3-ylcarbonyl)piperidin-4-yl]-1H-pyrazolo[3,4-d]pyrimidin-6-yl}pyridin-2-yl)urea]: the IC50 with prostate line LNCap (Homo sapiens, LNCaP, 72 h) is 0.8 µM; with breast line MDA468 (Homo sapiens, 72 h) it was 1.2 µM; on PI3K it was 0.042 µM.

Turning to `Nc1ccc(-c2nc(N3CCOCC3)c3cnn(C4CCN(CCCCO)CC4)c3n2)cc1` [Compound 749, 4-{4-[6-(4-aminophenyl)-4-morpholin-4-yl-1H-pyrazolo[3,4-d]pyrimidin-1-yl]piperidin-1-yl}butan-1-ol], the IC50 with prostate line LNCap (Homo sapiens, LNCaP, 72 h) is 12 µM; with breast line MDA468 (Homo sapiens, 72 h), 30 µM; on PI3K, 4.23 µM.

Regarding `CCOC(=O)N1CCC(n2ncc3c(N4CCOC[C@@H]4C)nc(-c4ccc(NC(=O)Nc5ccncc5)cc4)nc32)CC1` [Compound 898, ethyl 4-(4-[(3S)-3-methylmorpholin-4-yl]-6-{4-[(pyridin-4-ylcarbamoyl)amino]phenyl}-1H-pyrazolo[3,4-d]pyrimidin-1-yl)piperidine-1-carboxylate], the IC50 with prostate line LNCap (Homo sapiens, LNCaP, 72 h) turned out to be 0.04 µM; in the test with breast line MDA468 (Homo sapiens, 72 h) it was 0.38 µM; at PI3K, 0.018 µM.

For `CC(C)(C)C(=O)Nc1ccc(-c2nc(N3CCOCC3)c3cnn(C4CCN(Cc5ccccc5)CC4)c3n2)cc1` [Compound 187], the IC50 with prostate line LNCap (Homo sapiens, LNCaP, 72 h) was determined as 35 µM; in the test with breast line MDA468 (Homo sapiens, 72 h) it was 40 µM; on PI3K, 7.77 µM.

Consider `NS(=O)(=O)c1ccc(-c2nc(N3CCOCC3)c3cnn(C4CCN(Cc5ccccc5)CC4)c3n2)cc1` [Compound 85], for which the IC50 in the test with prostate line LNCap (Homo sapiens, LNCaP, 72 h) stood at 8 µM; in the test with breast line MDA468 (Homo sapiens, 72 h), 9 µM; at PI3K it was 2.28 µM.

As for `O=C(c1ccc[n+]([O-])c1)N1CCC(n2ncc3c(N4CCOCC4)nc(-c4ccc5[nH]ccc5c4)nc32)CC1` [Compound 197], the IC50 amounted to 2.5 µM in the test on prostate line LNCap (Homo sapiens, LNCaP, 72 h); 3.8 µM with breast line MDA468 (Homo sapiens, 72 h); 3.06 µM on PI3K.

Regarding `COC(=O)N1CCC(n2ncc3c(N4CCOCC4)nc(-c4ccc(NC(=O)Nc5cccnc5F)cc4)nc32)CC1` [Compound 863, methyl 4-[6-(4-{[(2-fluoropyridin-3-yl)carbamoyl]amino}phenyl)-4-morpholin-4-yl-1H-pyrazolo[3,4-d]pyrimidin-1-yl]piperidine-1-carboxylate], the IC50 with prostate line LNCap (Homo sapiens, LNCaP, 72 h) stood at 0.17 µM; in the test on breast line MDA468 (Homo sapiens, 72 h), 0.68 µM; at PI3K, 0.266 µM.

Regarding `COC(=O)Nc1ccc(-c2nc(N3CCOCC3)c3cnn(C4CCN(C(=O)C(C)C)CC4)c3n2)cc1` [Compound 810, methyl {4-[1-(1-isobutyrylpiperidin-4-yl)-4-morpholin-4-yl-1H-pyrazolo[3,4-d]pyrimidin-6-yl]phenyl}carbamate], the IC50 in the test on prostate line LNCap (Homo sapiens, LNCaP, 72 h) came to 1.3 µM; in the test with breast line MDA468 (Homo sapiens, 72 h), 3 µM; at PI3K, 2.23 µM.

For the compound `CNC(=O)Nc1ccc(-c2nc(N3CCOCC3)c3cnn(C4CCN(S(C)(=O)=O)CC4)c3n2)cc1` [Compound 759, 1-methyl-3-(4-{1-[1-(methylsulfonyl)piperidin-4-yl]-4-morpholin-4-yl-1H-pyrazolo[3,4-d]pyrimidin-6-yl}phenyl)urea], the IC50 in the test with prostate line LNCap (Homo sapiens, LNCaP, 72 h) stood at 0.4 µM; in the test with breast line MDA468 (Homo sapiens, 72 h), 0.48 µM; on PI3K it was 0.078 µM.

Regarding `COCCCNC(=O)Nc1ccc(-c2nc(N3CCOCC3)c3cnn(C4CCN(Cc5ccccc5)CC4)c3n2)cc1` [Compound 515, 1-{4-[1-(1-benzylpiperidin-4-yl)-4-morpholin-4-yl-1H-pyrazolo[3,4-d]pyrimidin-6-yl]phenyl}-3-(3-methoxypropyl)urea], the IC50 amounted to 0.6 µM in the test with prostate line LNCap (Homo sapiens, LNCaP, 72 h); 3.2 µM in the test on breast line MDA468 (Homo sapiens, 72 h); 0.753 µM on PI3K.

`Nc1ccc(-c2nc(N3CCOCC3)c3cnn(C4CCN(Cc5ccccc5)CC4)c3n2)cc1[N+](=O)[O-]` [Compound 183, 4-[1-(1-benzylpiperidin-4-yl)-4-morpholin-4-yl-1H-pyrazolo[3,4-d]pyrimidin-6-yl]-2-nitroaniline]: the IC50 in the test on prostate line LNCap (Homo sapiens, LNCaP, 72 h) is 11 µM; in the test with breast line MDA468 (Homo sapiens, 72 h), 13 µM; at PI3K, 1.17 µM.

Take `O=C(Nc1ccc(-c2nc(N3CCOCC3)c3cnn(C4CCN(C(=O)c5cccnc5)CC4)c3n2)cc1)NC1CC1` [Example 415, 1-cyclopropyl-3-(4-{4-morpholin-4-yl-1-[1-(pyridin-3-ylcarbonyl)piperidin-4-yl]-1H-pyrazolo[3,4-d]pyrimidin-6-yl}phenyl)urea]: the IC50 is 0.37 µM with prostate line LNCap (Homo sapiens, LNCaP, 72 h); 0.7 µM in the test with breast line MDA468 (Homo sapiens, 72 h); 0.357 µM at PI3K.

For `CNCCOC(=O)N1CCC(n2ncc3c(N4CCOCC4)nc(-c4ccc(NC(=O)NC)cc4)nc32)CC1` [Compound 802, 2-(methylamino)ethyl 4-(6-{4-[(methylcarbamoyl)amino]phenyl}-4-morpholin-4-yl-1H-pyrazolo[3,4-d]pyrimidin-1-yl)piperidine-1-carboxylate], the IC50 with prostate line LNCap (Homo sapiens, LNCaP, 72 h) was found to be 10 µM; with breast line MDA468 (Homo sapiens, 72 h) it was 5.5 µM; on PI3K, 0.181 µM.

In the case of `O=C(CCN1CCCCC1)Nc1ccc(-c2nc(N3CCOCC3)c3cnn(-c4ccccc4)c3n2)cc1` [Compound 137], the IC50 in the test with prostate line LNCap (Homo sapiens, LNCaP, 72 h) was 2.8 µM; in the test on breast line MDA468 (Homo sapiens, 72 h), 1.2 µM; at PI3K, 0.1 µM.
